Measurements reported in article PMC3523108 (European biophysics journal : EBJ, 2009).

Biological target: bovine serum albumin (BSA) (Bos taurus, UniProt P02769)
Format: binding
Settings: slope of log((F0−F)/F) vs log[Q], Eq. 2; sensitizer 10^−6–7 × 10^−6 M

bovine serum albumin (BSA), sequence (P02769 25-607): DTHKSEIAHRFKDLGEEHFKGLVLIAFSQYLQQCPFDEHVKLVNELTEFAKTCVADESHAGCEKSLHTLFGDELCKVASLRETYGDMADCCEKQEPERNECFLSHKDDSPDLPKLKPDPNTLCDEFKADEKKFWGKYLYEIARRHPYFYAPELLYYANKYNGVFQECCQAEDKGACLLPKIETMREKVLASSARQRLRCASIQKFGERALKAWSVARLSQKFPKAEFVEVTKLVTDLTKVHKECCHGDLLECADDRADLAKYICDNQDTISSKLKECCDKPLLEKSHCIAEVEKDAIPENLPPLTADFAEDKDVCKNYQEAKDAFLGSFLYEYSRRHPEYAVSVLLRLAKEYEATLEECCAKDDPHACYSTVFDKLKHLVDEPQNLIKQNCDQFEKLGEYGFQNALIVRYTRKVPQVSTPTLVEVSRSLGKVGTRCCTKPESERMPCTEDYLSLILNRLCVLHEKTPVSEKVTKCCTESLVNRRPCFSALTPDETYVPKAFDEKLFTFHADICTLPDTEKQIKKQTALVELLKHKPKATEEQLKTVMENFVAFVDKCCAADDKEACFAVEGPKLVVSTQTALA

C=CC1=C(C)c2cc3[nH]c(cc4nc(cc5[nH]c(cc1n2)c(C)c5CCC(=O)O)C(CCC(=O)O)=C4C)c(C)c3C=C [PP3, Protoporphyrin IX]
n (number of binding sites in BSA): 0.993 ± 0.082
